Reference: BindingDB's records for doi:10.1016/j.bmcl.2012.10.084 (Takeda Pharmaceutical, 2012)

Molecular target: Mitogen-activated protein kinase kinase kinase 7 (TAK1) (Homo sapiens) (UniProt O43318)
Experiment: Inhibition of TAK1

Sequence of Mitogen-activated protein kinase kinase kinase 7 (TAK1) (Homo sapiens) (O43318 whole entry, looked up): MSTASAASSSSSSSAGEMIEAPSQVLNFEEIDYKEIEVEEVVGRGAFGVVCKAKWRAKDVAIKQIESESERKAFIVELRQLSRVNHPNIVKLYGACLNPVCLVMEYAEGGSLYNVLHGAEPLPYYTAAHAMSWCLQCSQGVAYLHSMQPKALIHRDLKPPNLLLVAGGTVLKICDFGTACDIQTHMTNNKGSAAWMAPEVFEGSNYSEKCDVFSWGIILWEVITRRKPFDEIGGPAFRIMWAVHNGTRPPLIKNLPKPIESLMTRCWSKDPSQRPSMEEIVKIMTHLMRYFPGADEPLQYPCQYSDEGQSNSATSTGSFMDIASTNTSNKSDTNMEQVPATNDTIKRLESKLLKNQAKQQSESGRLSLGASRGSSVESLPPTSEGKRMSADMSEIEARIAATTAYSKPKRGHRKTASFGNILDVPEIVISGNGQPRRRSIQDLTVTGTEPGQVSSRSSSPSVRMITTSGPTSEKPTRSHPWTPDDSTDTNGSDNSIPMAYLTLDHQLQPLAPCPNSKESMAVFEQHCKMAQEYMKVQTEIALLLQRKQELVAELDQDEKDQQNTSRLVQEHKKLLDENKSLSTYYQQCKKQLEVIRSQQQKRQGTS

SMILES: CC(C)(C)c1ccc(C(=O)Nc2cn3cc(-n4ccnc4)ccc3n2)cc1
- IC50: > 10 µM
